{
  "source": "patent US9458095B2",
  "about": "“Oligo-benzamide compounds and their use in treating cancers” (The Board of Regents of the University of Texas System, priority 2011, dated 2016)",
  "key": {"[1]": {"system": "ARE activity in CWR22v1 cells (ARwt and ARv7)", "experiment": "ARE-luciferase reporter in CWR22v1 cells", "format": "cell-based", "details": "10 μM casodex or MDV3100, 48 h, without androgen (EtOH)", "description": "FIG. 4. Effect of T6 on basal level of ARE expression in CWR22v1 cells. CWR22v1 cells were transiently transfected with ARE-luciferase. Cells were maintained for 48 h without (EtOH) and in the presence of 100 nM of peptidomimetic or volume equivalent of vehicle (DMSO) control or 10 μM of casodex or MDV3100."}, "[2]": {"system": "ARv7 regulated genes", "experiment": "Q-PCR of ARv7 regulated genes", "format": "cell-based", "details": "data not shown", "excerpt": "Finally, confirmation of the role of T6 in modulating ARv7 driven transcription was obtained by evaluation of the gene expression of ARv7 regulated genes."}, "[3]": {"system": "triple negative breast cancer cell line", "experiment": "Growth inhibition of breast cell lines (MTT)", "format": "cell-based", "details": "72 h", "description": "FIG. 6. Testing of oligo-benzamides for growth inhibition of breast cell lines.\n(§1) Cell proliferation rates were measured by using MTT Cell Viability Assay in 96-well micro plates. Model cells were seeded in 96-well plates (2×10^3 cells/well) in DMEM or RPMI medium containing 10% serum. After an overnight incubation, cells were treated with varying concentrations of oligo-benzamides for 72 h and growth inhibition was determined by using traditional MTT assay (Sigma) following manufacturer's instructions."}, "[4]": {"system": "ovarian cancer cell line", "experiment": "Growth inhibition of ovarian cell lines (MTT)", "format": "cell-based", "details": "72 h", "description": "FIG. 7. Testing of oligo-benzamides for growth inhibition of ovarian cell lines.\nHuman Breast cancer cells MCF7, ZR75, glioma cells U87, T98G, LN229, and the ovarian cancer cell line SKOV3 were obtained from the American Type Culture Collection (ATCC) and were maintained using ATCC recommended media.\nas §1"}, "[5]": {"system": "U87", "experiment": "Growth inhibition of brain cancer cell line U87 (MTT)", "format": "cell-based, Human", "details": "72 h", "description": "(§2) FIGS. 8A-B. Testing of oligo-benzamides for growth inhibitor of two brain cancer cell lines. (FIG. 8A) Results for cell line U87. (FIG. 8B) Results for cell line LN229. […] Human Breast cancer cells MCF7, ZR75, glioma cells U87, T98G, LN229, and the ovarian cancer cell line SKOV3 were obtained from the American Type Culture Collection (ATCC) and were maintained using ATCC recommended media. Cell proliferation rates were measured by using MTT Cell Viability Assay in 96-well micro plates. Model cells were seeded in 96-well plates (2×10^3 cells/well) in DMEM or RPMI medium containing 10% serum. After an overnight incubation, cells were treated with varying concentrations of oligo-benzamides for 72 h and growth inhibition was determined by using traditional MTT assay (Sigma) following manufacturer's instructions."}, "[6]": {"system": "LN229", "experiment": "Growth inhibition of brain cancer cell line LN229 (MTT)", "format": "cell-based, Human", "details": "72 h", "description": "as §2"}, "[7]": {"system": "CH157", "experiment": "Growth inhibition of meningioma cell line CH157", "format": "cell-based", "description": "(§3) FIGS. 10A-B. Testing of oligo-benzamide (TK 11) for growth inhibitor of two meningioma brain cancer cell lines. (FIG. 10A) Results for cell line CH157. (FIG. 10B) Results for cell line IOMM-LEE.\nas §1"}, "[8]": {"system": "IOMM-LEE", "experiment": "Growth inhibition of meningioma cell line IOMM-LEE", "format": "cell-based", "description": "as §3, §1"}, "[9]": {"system": "prostate cancer cell line", "experiment": "Growth inhibition of prostate cancer cell line", "format": "cell-based"}, "[10]": {"system": "IOSE immortalized normal ovarian cells", "experiment": "Growth of normal ovarian cells", "format": "cell-based", "description": "FIG. 11. Testing of oligo-benzamides on growth of normal ovarian cells. IOSE are immortalized normal ovarian cells.\nas §1"}, "[11]": {"target": "T1, PELP1 interaction with estrogen receptor (Homo sapiens, UniProt P03372)", "T1 construct": "purchased", "T1 sequence (P03372 1-595)": "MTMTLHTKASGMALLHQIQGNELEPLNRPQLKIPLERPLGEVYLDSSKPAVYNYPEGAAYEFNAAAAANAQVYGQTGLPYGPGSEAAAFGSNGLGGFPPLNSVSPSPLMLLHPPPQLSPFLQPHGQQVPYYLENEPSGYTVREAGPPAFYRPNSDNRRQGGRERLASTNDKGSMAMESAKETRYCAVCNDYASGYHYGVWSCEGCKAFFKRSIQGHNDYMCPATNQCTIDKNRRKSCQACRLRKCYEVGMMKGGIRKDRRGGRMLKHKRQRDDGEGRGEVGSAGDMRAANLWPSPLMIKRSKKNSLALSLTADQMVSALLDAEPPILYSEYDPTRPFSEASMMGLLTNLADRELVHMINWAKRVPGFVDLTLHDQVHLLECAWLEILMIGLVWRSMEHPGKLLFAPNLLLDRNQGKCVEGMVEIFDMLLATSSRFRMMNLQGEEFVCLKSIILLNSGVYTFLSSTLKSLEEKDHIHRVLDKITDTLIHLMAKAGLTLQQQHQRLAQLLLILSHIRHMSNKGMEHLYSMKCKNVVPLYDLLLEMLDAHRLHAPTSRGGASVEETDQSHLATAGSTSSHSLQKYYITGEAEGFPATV", "experiment": "PELP1-ER interaction, GST pull down assay", "format": "binding", "details": "TK11 500 nM, purified ER, GST-PELP1, E2", "description": "FIGS. 12A-C. Testing of oligo-benzamides for growth inhibition of estrogen driven proliferation. (FIG. 12A) Structure of peptidomimetics used in the assays. (FIG. 12B) Effect of tribenzamimetics on E2 driven proliferation using ZR75 model cells. (FIG. 12C) Effect of tribenzamides on PELP1-ER interaction. *, P<0.05.\nPurified commercially available estrogen receptor (ER) was incubated with biotin-con or biotin-TK11 peptidomimetic in the presence of estrogen (E2). TK11 interaction with ER was determined using avidin immunoprecipitation (IP) followed by western blotting. For some experiments, MCF-7 cells were stimulated with estrogen (E2), nuclear lysates were prepared and incubated with biotin-con or biotin-TK11 peptidomimetic. TK11 interactions with endogenous ER were analyzed by avidin IP. For some experiments, purified ER, GST-PELP1 was incubated in the presence of E2 and ability of control or TK11 (500 nM) to compete PELP1 interaction with ER was determined GST pull down assay."}, "[12]": {"system": "Tamoxifen therapy resistant MCF7-HER2 and MCF7-TAM cells", "experiment": "Therapy resistance assay (MTT), hormonal therapy resistant cells", "format": "cell-based, Human", "details": "tamoxifen (10^-7M) containing media, P<0.05", "description": "FIG. 13. Testing of oligo-benzamides for growth inhibition of hormonal therapy resistant cells.\nTamoxifen (Tam) therapy resistant MCF7-HER2 and MCF7-TAM cells were cultured in tamoxifen (10^-7M) containing media in the presence or absence of TK11 and proliferation was measured by MTT assay (Sigma) following manufacturer's instructions."}},
  "data": [
    {"smiles": "CNC(=O)c1ccc(N2C(=S)N(c3ccc(C#N)c(C(F)(F)F)c3)C(=O)C2(C)C)cc1F", "note": "[MDV3100, reference compound]", "values": [
      {"measurement": "basal ARE activity in CWR22v1 cells", "setting": "[1]", "value": "neither casodex nor MDV3100 could significantly affect"},
      {"measurement": "expression of a panel of ARv7 regulated genes (Q-PCR)", "setting": "[2]", "value": "could not affect"}
    ]},
    {"smiles": "CC(C)COc1cc(C(N)=O)ccc1NC(=O)c1ccc(NC(=O)c2ccc([N+](=O)[O-])c(OCCO)c2)c(OCC(C)C)c1", "note": "[TK11]", "values": [
      {"measurement": "growth inhibition, triple negative breast cancer cell line", "setting": "[3]", "value": "high potencies"},
      {"measurement": "growth inhibition, ovarian cancer cell line", "setting": "[4]", "value": "high potency"},
      {"measurement": "growth inhibition, brain cancer cell line U87", "setting": "[5]", "value": "high potency"},
      {"measurement": "growth inhibition, brain cancer cell line LN229", "setting": "[6]", "value": "high potency"},
      {"measurement": "growth inhibition, meningioma cell line CH157 (specificity versus prostate cancer cell line)", "setting": "[7]", "value": "higher specificity"},
      {"measurement": "growth inhibition, meningioma cell line IOMM-LEE (specificity versus prostate cancer cell line)", "setting": "[8]", "value": "higher specificity"},
      {"measurement": "potency in inhibiting prostate cancer cell line", "setting": "[9]", "value": "weak potency"},
      {"measurement": "potency in inhibiting growth of normal ovarian cells (IOSE)", "setting": "[10]", "value": "weak potency"},
      {"measurement": "blocking PELP1 oncogene interactions with estrogen receptor", "setting": "[11]", "value": "very efficient in blocking"},
      {"measurement": "growth of hormonal therapy resistant cells", "setting": "[12]", "value": "significantly inhibited"}
    ]},
    {"smiles": "CC(O)(CS(=O)(=O)c1ccc(F)cc1)C(=O)Nc1ccc(C#N)c(C(F)(F)F)c1", "note": "(centres unmarked) [casodex, reference compound]", "values": [
      {"measurement": "basal ARE activity in CWR22v1 cells", "setting": "[1]", "value": "neither casodex nor MDV3100 could significantly affect"},
      {"measurement": "expression of a panel of ARv7 regulated genes (Q-PCR)", "setting": "[2]", "value": "could not affect"}
    ]}
  ]
}
